Measurements taken from patent US9596857B2, “Insecticidal and miticidal mixtures of bifenthrin and cyano-pyrethroids” (FMC Corporation, priority 2005, dated 2017).

Legend:
Type in all cases: in vivo
[1] = system: corn earworm (Helicoverpa zea [Boddie]); experiment: Cotton leaf-disc dip test against corn earworm; conditions: technical, 96 h
Method: (§1) Candidate insecticide compositions were evaluated for activity in foliar evaluations against tobacco budworm (Heliothis virescens [Fabricius]), Colorado potato beetle (Leptinotarsa decemlineata [Say]), corn earworm (Helicoverpa zea [Boddie]), cotton aphid (Aphis gossypii [Glover]) and twospotted spider mite (Tetranychus urticae [Koch]). Each test included controls in which the formulation or test solution minus the active ingredients were applied.
In tests against corn earworm, one inch diameter leaf discs cut from cotton plant leaves (Gossypium hirsutum) were dipped into the test solutions of the test formulations to provide application rates as high as 1000 ppm of the active ingredients. The test formulations were dissolved in distilled water containing 10% acetone and 0.25% of a non-ionic detergent [an octylphenolpoly(ethyleneglycolether)x, available from Roche Applied Science as Triton X-100] to the proper concentrations. Cotton wicks, 0.5 inch diameter by 2 inches long, were soaked with distilled water and placed into the wells of a 32 well rearing tray (available as Rearing Tray Bio-Fit 32, from C-D International, Pittman, N.J.), one wick per well. Treated leaf discs were placed on top of the cotton wicks, one leaf disc per wick, and the rearing tray was transferred to a hood where they were kept until the leaf discs had dried. Each disc was infested with 1 late second to early third instar corn earworm, replicated sixteen times per rate of application, and a lid was placed on the rearing tray. The rearing trays were held in a growth chamber for 96 hours at 25° C., 50% relative humidity and a photoperiod of 12 hours light/12 hours dark. For tests in which the active ingredients were not formulated, i.e. the technical active ingredient was used; a stock solution of the test compound was made. For example, a 100 ppm stock solution may be made by dissolving 4 milligrams of the test compound in 4 mL of acetone and adding the solution to 36 mL of an aqueous Triton X-100 solution (one drop of Triton X-100 dissolved in 100 mL of distilled water). Further dilutions can be made by adding distilled water containing 10% acetone and 0.25% of Triton X-100.
(§2) At the end of the 96 hour exposure period, the rearing tray was opened, and the numbers of dead and live insects were counted. […] Using the insect counts, the activity of the test chemical was expressed in percent control. Percent control is derived from the total number of dead insects (TD) compared to the total number of insects (TI) in the test: […]

[2] = system: cotton aphid (Aphis gossypii [Glover]); experiment: Foliar leaf-dip test against cotton aphid on tomato plants; conditions: technical, 72 h
Method: as §1
In tests against cotton aphid, the leaves of 6 to 8 inch tall tomato plants (Lycopersicon lycoper) were infested with about 50 cotton aphids by placing leaf cuttings from a cotton aphid colony host tomato plant. After about 12 hours the newly infested tomato leaves were dipped into the test solutions of the test formulations to provide application rates as high as 1000 ppm of the active ingredients. The test formulations were dissolved in, and diluted as necessary, with distilled water containing 10% acetone and 0.25% of a non-ionic detergent [an octylphenolpoly(ethyleneglycolether)x, available from Roche Applied Science as Triton X-1001 to the proper concentrations. After treatment, a square of parafilm was placed around the stem of each test plant, covering the soil of each pot in order to catch dead aphids that fall from the leaves. The treated plants were transferred to a hood where they were kept until the leaves had dried. Once dry, the potted plants were placed into a tray containing at least one inch of water. The plants were spaced far enough apart to prevent the aphids from moving between plants. The trays were held in a growth chamber for 72 hours at 25° C., 50% relative humidity and a photoperiod of 14 hours light/10 hours dark. For tests in which the active ingredients were not formulated, i.e. the technical active ingredient was used; a stock solution of the test compound was made. For example, a 100 ppm stock solution may be made by dissolving 4 milligrams of the test compound in 4 mL of acetone and adding the solution to 36 mL of an aqueous Triton X-100 solution (one drop of Triton X-100 dissolved in 100 mL of distilled water). Further dilutions can be made by adding distilled water containing 10% acetone and 0.25% of Triton X-100.
At the end of the 72 hour exposure period the numbers of dead and live insects were counted. Insects were classified as “dead” if they were off-color or brown and desiccated. Using the insect counts, the activity of the test chemical was expressed in percent control. Percent control is derived from the total number of dead insects (TD) compared to the total number of insects (TI) in the test: […]

[3] = system: Colorado potato beetle (Leptinotarsa decemlineata [Say]); experiment: Foliar leaf-dip test against adult Colorado potato beetle on tomato plants; conditions: technical, 72 h
Method: as §1
In tests against adult Colorado potato beetle, the leaves of 6-8 inch tall tomato plants (Lycopersicon lycoper) were dipped into the test solutions of the test formulations to provide application rates as high as 1000 ppm of the active ingredients. The test formulations were dissolved in distilled water containing 10% acetone and 0.25% of a non-ionic detergent [an octylphenolpoly(ethyleneglycolether)x, available from Roche Applied Science as Triton X-100] to the proper concentrations. The treated plants were transferred to a hood where they were kept until the leaves had dried. For tests in which the active ingredients were not formulated, i.e. the technical active ingredient was used; a stock solution of the test compound was made. For example, a 100 ppm stock solution may be made by dissolving 4 milligrams of the test compound in 4 mL of acetone and adding the solution to 36 mL of an aqueous Triton X-100 solution (one drop of Triton X-100 dissolved in 100 mL of distilled water). Further dilutions can be made by adding distilled water containing 10% acetone and 0.25% of Triton X-100.
The treated tomato plants were removed from their pots by cutting the stems just above the soil line. Each excised plant was placed into an individual 8-ounce paper cup. Ten adult Colorado potato beetles were placed into each paper cup, taking care not to cause injury. An opaque plastic lid was placed on each cup, for a 72 hour exposure period and held at 25° C., 50% relative humidity with a photo-period of 12 hours light and 12 hours dark. At the end of the 72 hour exposure period, the cups were opened, and the numbers of dead and live insects were counted. Using the insect counts, the activity of the test chemical was expressed in percent control. Percent control is derived from the total number of dead insects (TD) compared to the total number of insects (TI) in the test: […]

[4] = system: twospotted spider mite (Tetranychus urticae [Koch]); experiment: Foliar leaf-dip test against twospotted spider mite on pinto bean plants; conditions: technical, 96 h
Method: as §1
In tests against twospotted spider mites, the leaves of potted 3 to 4 inch tall pinto bean plants (Phaseolus vulgaris) were infested with about 50 to 75 adult twospotted spider mites by placing leaf cuttings from a twospotted spider mite colony host pinto bean plant on the upper surface of the test plant leaves. After about 1 hour the newly infested pinto bean leaves were dipped into the test solutions of the test formulations to provide application rates as high as 1000 ppm of the active ingredients. The test formulations were dissolved in, and diluted as necessary, with distilled water containing 10% acetone and 0.25% of a non-ionic detergent [an octylphenolpoly(ethyleneglycolether)x, available from Roche Applied Science as Triton X-100] to the proper concentrations. The treated plants were transferred to a hood where they were kept until the leaves had dried. Once dry, the potted plants were placed into a tray containing at least one inch of water. The plants were spaced far enough apart to prevent the mites from moving between plants. The trays were held in a growth chamber for 96 hours at 25° C., 50% relative humidity and a photoperiod of 14 hours light/10 hours dark. For tests in which the active ingredients were not formulated, i.e. the technical active ingredient was used; a stock solution of the test compound was made. For example, a 100 ppm stock solution may be made by dissolving 4 milligrams of the test compound in 4 mL of acetone and adding the solution to 36 mL of an aqueous Triton X-100 solution (one drop of Triton X-100 dissolved in 100 mL of distilled water). Further dilutions can be made by adding distilled water containing 10% acetone and 0.25% of Triton X-100.
as §2, with “period” for “period, the rearing tray was opened, and”

[5] = cyano-pyrethroid 0.3 ppm alone (bifenthrin 0.0 ppm)
[6] = cyano-pyrethroid 1.0 ppm alone (bifenthrin 0.0 ppm)
[7] = cyano-pyrethroid 3.0 ppm alone (bifenthrin 0.0 ppm)
[8] = cyano-pyrethroid 10.0 ppm alone (bifenthrin 0.0 ppm)
[9] = cyano-pyrethroid 30.0 ppm alone (bifenthrin 0 ppm)
[10] = cyano-pyrethroid 100.0 ppm alone (bifenthrin 0 ppm)
[11] = cyano-pyrethroid 200.0 ppm alone (bifenthrin 0 ppm)
[12] = cyano-pyrethroid 0.3 ppm alone (bifenthrin 0 ppm)
[13] = cyano-pyrethroid 1.0 ppm alone (bifenthrin 0 ppm)
[14] = cyano-pyrethroid 3.0 ppm alone (bifenthrin 0 ppm)
[15] = cyano-pyrethroid 10.0 ppm alone (bifenthrin 0 ppm)

Row | Structure (SMILES) | % Mortality Corn Earworm [1, 5] [%] | % Mortality Corn Earworm [1, 6] [%] | % Mortality Corn Earworm [1, 7] [%] | % Mortality Corn Earworm [1, 8] [%] | % Mortality Cotton Aphid [2, 9] [%] | % Mortality Cotton Aphid [2, 10] [%] | % Mortality Cotton Aphid [2, 11] [%] | % Mortality Adult Colorado Potato Beetle [3, 12] [%] | % Mortality Adult Colorado Potato Beetle [3, 13] [%] | % Mortality Adult Colorado Potato Beetle [3, 14] [%] | % Mortality Adult Colorado Potato Beetle [3, 15] [%] | % Mortality Twospotted Spider Mite [4, 15] [%] | % Mortality Twospotted Spider Mite [4, 9] [%] | % Mortality Twospotted Spider Mite [4, 10] [%] | % Mortality Twospotted Spider Mite [4, 11] [%] | % Mortality Cotton Aphid [2, 15] [%] | % Mortality Twospotted Spider Mite ([4]; cyano-pyrethroid 60.0 ppm alone (bifenthrin 0 ppm)) [%]
1 | CC1(C)C(C=C(Cl)Cl)C1C(=O)OC(C#N)c1cccc(Oc2ccccc2)c1 (racemic) [alpha-cypermethrin, (S)-α-cyano-3-phenoxybenzyl (1R)-cis-3-(2,2-dichlorovinyl)-2,2-dimethylcyclopropanecarboxylate and (R)-α-cyano-3-phenoxybenzyl (1S)-cis-3-(2,2-dichlorovinyl)-2,2-dimethylcyclopropanecarboxylate] | 6 | 63 | 100 | 100 | 7 | 3 | 7 | 30 | 70 | 100 | 100 | 8 | 8 | 16 | 32 |  | 
2 | CC1(C)C(C=C(Cl)Cl)C1C(=O)OC(C#N)c1ccc(F)c(Oc2ccccc2)c1 (racemic) [cyfluthrin, (RS)-α-cyano-4-fluoro-3-phenoxybenzyl (1RS)-cis-trans-3-(2,2-dichlorovinyl)-2,2-dimethylcyclopropanecarboxylate] | 13 | 69 | 100 | 100 | 6 | 9 |  | 10 | 70 | 80 | 100 | 14 | 17 | 11 |  | 4 | 23
